According to patent US8119681B2, “2-[1-phenyl-5-hydroxy or methoxy-4alpha-methyl-hexahydrocyclopenta [ƒ]indazole-5-YL]ethyl phenyl derivatives as glucocorticoid receptor ligands” (Merck Sharp & Dohme Corp., priority 2006, dated 2012):

Biological target: T1, glucocorticoid receptor (GR) (Homo sapiens, UniProt P04150)
T1 construct: endogenous in cells; host or cells: HeLa (ATCC) cell lysate supernatant
T1 sequence (P04150 1-777): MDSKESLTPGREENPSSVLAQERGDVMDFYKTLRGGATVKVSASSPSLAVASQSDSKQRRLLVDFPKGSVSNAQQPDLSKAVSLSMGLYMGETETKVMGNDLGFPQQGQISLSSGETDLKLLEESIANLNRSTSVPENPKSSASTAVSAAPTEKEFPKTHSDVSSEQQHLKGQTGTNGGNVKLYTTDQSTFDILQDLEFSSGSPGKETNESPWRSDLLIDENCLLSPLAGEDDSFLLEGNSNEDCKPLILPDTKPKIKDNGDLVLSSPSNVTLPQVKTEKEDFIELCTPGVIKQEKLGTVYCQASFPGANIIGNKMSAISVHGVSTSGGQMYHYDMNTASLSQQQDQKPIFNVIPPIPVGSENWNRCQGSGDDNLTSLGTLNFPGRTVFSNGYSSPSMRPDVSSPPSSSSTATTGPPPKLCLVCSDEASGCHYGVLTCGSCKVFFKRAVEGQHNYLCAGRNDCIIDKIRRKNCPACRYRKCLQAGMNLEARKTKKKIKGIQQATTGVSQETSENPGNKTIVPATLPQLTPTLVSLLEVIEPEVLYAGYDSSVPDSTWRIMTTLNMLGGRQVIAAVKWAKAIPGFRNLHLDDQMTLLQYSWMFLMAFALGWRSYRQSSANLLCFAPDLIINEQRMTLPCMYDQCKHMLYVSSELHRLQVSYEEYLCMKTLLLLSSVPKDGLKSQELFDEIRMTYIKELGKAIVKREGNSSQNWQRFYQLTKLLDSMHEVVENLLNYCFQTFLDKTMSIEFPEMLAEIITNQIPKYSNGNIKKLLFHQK
Experiment: Ligand binding assay (GR BIND), 3H-dexamethasone displacement, HeLa cell lysate
Protocol: Binding Buffer: TEGM (10 mM Tris-HCl, 1 mM EDTA, 10% glycerol, 1 mM beta-mercaptoethanol, 10 mM Sodium Molybdate, pH 7.2)
50% HAP Slurry: Calbiochem Hydroxylapatite, Fast Flow, in 10 mM Tris, pH 8.0 and 1 mM EDTA.
Wash Buffer: 40 mM Tris, pH7.5, 100 mM KCl, 1 mM EDTA and 1 mM EGTA.
Dexmethasone-methyl-^3H, (DEX*); (Amersham cat# TRK645)
Dexamethasone (DEX) (Sigma, cat# D1756):
Phenol red-free Trypsin-EDTA is diluted in the same PBS 1:10. The cell layers are rinsed with 1× Trypsin, extra Trypsin is poured out, and the cell layers are incubated at 37° C. for ˜2 min. The flask is tapped and checked for signs of cell detachment. Once the cells begin to slide off the flask, the complete media is added. The cells are counted at this point, then diluted to the appropriate concentration and split into flasks or dishes for further culturing (Usually 1:3 to 1:6 dilution).
Preparation of Hela Cell Lysate
The cell pellet is washed twice with TEGM (10 mM Tris-HCl, 1 mM EDTA, 10% glycerol, 1 mM beta-mercaptoethanol, 10 mM Sodium Molybdate, pH 7.2). After the final wash, the cells are resuspended in TEGM at a concentration of 10^7 cells/mL. The cell suspension is snap frozen in liquid nitrogen or ethanol/dry ice bath and transferred to −80° C. freezer on dry ice. Before setting up the binding assay, the frozen samples are left on ice-water to just thaw (˜1 hr). Then the samples are centrifuged at 12,500 g to 20,000 g for 30 min at 4° C. The supernatant is used to set-up assay right away. If using 50 μL of supernatant, the test compound can be prepared in 50 μL of the TEGM buffer.
Procedure for Multiple Compound Screening
1×TEGM buffer is prepared, and the isotope-containing assay mixture is prepared in the following order: EtOH (2% final concentration in reaction), 3H-DEX (Amersham Biosciences) and 1×TEGM. [e.g. For 100 samples, 200 μL (100×2) of EtOH+4.25 μL of 1:10 ^3H-Dex stock+2300 μL (100×23) 1×TEGM]. The compound is serially diluted, e.g., if starting final conc. is 1 μM, and the compound is in 25 μL of solution, for duplicate samples, 75 μL of 4×1 μM solution is made and 3 μL of 100 μM is added to 72 μL of buffer, and 1:5 serial dilution.
25 μL of ^3H-DEX (6 nM) trace and 25 μL compound solution are first mixed together, followed by addition of 50 μL receptor solution. The reaction is gently mixed, spun briefly at about 200 rpm and incubated at 4° C. overnight. 100 μL of 50% HAP slurry is prepared and added to the incubated reaction which is then vortexed and incubated on ice for 5 to 10 minutes. The reaction mixture is vortexed twice more to resuspend HAP while incubating reaction. The samples in 96-well format are then washed in wash buffer using The FilterMate™ Universal Harvester plate washer (Packard). The washing process transfers HAP pellet containing ligand-bound expressed receptor to Unifilter-96 GF/B filter plate (Packard). The HAP pellet on the filter plate is incubated with 50 μL of MICROSCINT (Packard) scintillant for 30 minutes before being counted on the TopCount microscintillation counter (Packard). IC50s are calculated using DEX as a reference.

[1] = Table 1, HeLa cell lysate, 3H-DEX
[2] = Table 2, prior-art comparison compounds

| SMILES | Ki [1] [nM] | Ki [2] [nM] |
| --- | --- | --- |
| CC1(NC(=O)c2ccccc2CC[C@]2(O)CCC3=Cc4c(cnn4-c4ccccc4)C[C@@]32C)CC1 [Example 34, 2-{2-[(4αS,5R)-5-hydroxy-4α-methyl-1-phenyl-1,4,4α,5,6,7-hexahydrocyclopenta[f]indazol-5-yl]ethyl}-N-(1-methylcyclopropyl)benzamide] | 5.29 | – |
| CC(CNC(=O)c1c(F)cccc1CC[C@]1(O)CCC2=Cc3c(cnn3-c3ccc(F)cc3)C[C@@]21C)C(F)(F)F (stereo partly drawn) [Example 38, 2-fluoro-6-{2-[(4αS,5R)-1-(4-fluorophenyl)-5-hydroxy-4α-methyl-1,4,4α,5,6,7-hexahydrocyclopenta[f]indazol-5-yl]ethyl}-N-(3,3,3-trifluoro-2-methylpropyl)benzamide] | 0.43 | – |
| C[C@]12Cc3cnn(-c4ccc(F)cc4)c3C=C1CCC[C@@]2(O)CCc1ccccc1Cl [Example 41 WO 2004/075840 A2, reference compound] | – | 0.32 |
| COC(=O)C(C)(C)NC(=O)c1c(F)cccc1CC[C@]1(O)CCC2=Cc3c(cnn3-c3ccc(F)cc3)C[C@@]21C [Example 41, methyl N-(2-fluoro-6-{2-[(4αS,5R)-1-(4-fluorophenyl)-5-hydroxy-4α-methyl-1,4,4α,5,6,7-hexahydrocyclopenta[f]indazol-5-yl]ethyl}benzoyl)-2-methylalaninate] | 0.83 | – |
| C[C@]12Cc3cnn(-c4ccccc4)c3C=C1CC[C@@]2(O)CCc1ccccc1C(=O)NC1CC1 [Example 42, N-cyclopropyl-2-{2-[(4αS,5R)-5-hydroxy-4α-methyl-1-phenyl-1,4,4α,5,6,7-hexahydrocyclopenta[f]indazol-5-yl]ethyl}benzamide] | 2.79 | – |
| C[C@]12Cc3cnn(-c4ccccc4)c3C=C1CC[C@@]2(O)CCc1ccccc1C(N)=O [Example 43, 2-{2-[(4αS,5R)-5-hydroxy-4α-methyl-1-phenyl-1,4,4α,5,6,7-hexahydrocyclopenta[f]indazol-5-yl]ethyl}benzamide] | 5.16 | – |
| C[C@]12Cc3cnn(-c4ccc(F)cc4)c3C=C1CC[C@@]2(O)CCc1ccc(F)cc1 [Example 46 WO 2004/075840 A2, reference compound] | – | 1 |
| C[C@]12Cc3cnn(-c4ccc(F)cc4)c3C=C1CC[C@@]2(O)CCc1ccccc1C(=O)N1CCCCC1 [Example 46, (4αS,5R)-1-(4-fluorophenyl)-4α-methyl-5-{2-[2-(piperidin-1-ylcarbonyl)phenyl]ethyl}-1,4,4α,5,6,7-hexahydrocyclopenta[f]indazol-5-ol] | 3.02 | – |

The next lines start with the values.

| Ki [1] [nM] | Ki [2] [nM] | SMILES |
| --- | --- | --- |
| 1.14 | – | CC(C)CNC(=O)c1ccccc1CC[C@]1(O)CCC2=Cc3c(cnn3-c3ccc(F)cc3)C[C@@]21C [Example 29, 2-{2-[(4αS,5R)-1-(4-fluorophenyl)-5-hydroxy-4α-methyl-1,4,4α,5,6,7-hexahydrocyclopenta[f]indazol-5-yl]ethyl}-N-isobutylbenzamide] |
| 1.52 | – | CCCNC(=O)c1ccccc1CC[C@]1(O)CCC2=Cc3c(cnn3-c3ccc(F)cc3)C[C@@]21C [Example 30, 2-{2-[(4αS,5R)-1-(4-fluorophenyl)-5-hydroxy-4α-methyl-1,4,4α,5,6,7-hexahydrocyclopenta[f]indazol-5-yl]ethyl}-N-propylbenzamide] |
| 0.9 | – | CC(CNC(=O)c1ccccc1CC[C@]1(O)CCC2=Cc3c(cnn3-c3ccc(F)cc3)C[C@@]21C)C(F)(F)F (stereo partly drawn) [Example 31, 2-{2-[(4αS,5R)-1-(4-fluorophenyl)-5-hydroxy-4α-methyl-1,4,4α,5,6,7-hexahydrocyclopenta[f]indazol-5-yl]ethyl}-N-(3,3,3-trifluoro-2-methylpropyl)benzamide] |
| 0.49 | – | C=C(C)CNC(=O)c1ccccc1CC[C@]1(O)CCC2=Cc3c(cnn3-c3ccc(F)cc3)C[C@@]21C [Example 32, 2-{2-[(4αS,5R)-1-(4-fluorophenyl)-5-hydroxy-4α-methyl-1,4,4α,5,6,7-hexahydrocyclopenta[f]indazol-5-yl]ethyl}-N-(2-methylprop-2-en-1-yl)benzamide] |
| 1.13 | – | C=CCNC(=O)c1ccccc1CC[C@]1(O)CCC2=Cc3c(cnn3-c3ccc(F)cc3)C[C@@]21C [Example 33, N-allyl-2-{2-[(4αS,5R)-1-(4-fluorophenyl)-5-hydroxy-4α-methyl-1,4,4α,5,6,7-hexahydrocyclopenta[f]indazol-5-yl]ethyl}benzamide] |
| 3.55 | – | CC(C)NC(=O)c1ccccc1CC[C@]1(O)CCC2=Cc3c(cnn3-c3ccc(F)cc3)C[C@@]21C [Example 35, 2-{2-[(4αS,5R)-1-(4-fluorophenyl)-5-hydroxy-4α-methyl-1,4,4α,5,6,7-hexahydrocyclopenta[f]indazol-5-yl]ethyl}-N-isopropylbenzamide] |
| 0.44 | – | C[C@]12Cc3cnn(-c4ccc(F)cc4)c3C=C1CC[C@@]2(O)CCc1ccccc1C(=O)NCC1CC1 [Example 37, N-(cyclopropylmethyl)-2-{2-[(4αS,5R)-1-(4-fluorophenyl)-5-hydroxy-4α-methyl-1,4,4α,5,6,7-hexahydrocyclopenta[r]indazol-5-yl]ethyl}benzamide] |
| – | 20.7 | C[C@]12Cc3cnn(-c4ccc(F)cc4)c3C=C1CC[C@@]2(O)CCc1ccccc1Cl [Example 40 WO 2004/075840 A2, reference compound] |
| 6.14 | – | C[C@]12Cc3cnn(-c4ccc(F)cc4)c3C=C1CC[C@@]2(O)CCc1ccccc1C(=O)N1CCC1 [Example 40, (4αS,5R)-5-{2-[2-(azetidin-1-ylcarbonyl)phenyl]ethyl}-1-(4-fluorophenyl)-4α-methyl-1,4,4α,5,6,7-hexahydrocyclopenta[f]indazol-5-ol] |
| 0.6 | – | C=C(C)CNC(=O)c1c(F)cccc1CC[C@]1(O)CCC2=Cc3c(cnn3-c3ccc(F)cc3)C[C@@]21C [Example 44, 2-fluoro-6-{2-[(4αS,5R)-1-(4-fluorophenyl)-5-hydroxy-4α-methyl-1,4,4α,5,6,7-hexahydrocyclopenta[f]indazol-5-yl]ethyl}-N-(2-methylprop-2-en-1-yl)benzamide] |
| 1.02 | – | C[C@H](CNC(=O)c1ccccc1CC[C@]1(O)CCC2=Cc3c(cnn3-c3ccc(F)cc3)C[C@@]21C)C(F)(F)F [Example 45, 2-{2-[(4αS,5R)-1-(4-fluorophenyl)-5-hydroxy-4α-methyl-1,4,4α,5,6,7-hexahydrocyclopenta[f]indazol-5-yl]ethyl}-N-[(2R)-3,3,3-trifluoro-2-methylpropyl]benzamide] |
| 11.5 | – | C[C@]12Cc3cnn(-c4ccc(F)cc4)c3C=C1CC[C@@]2(O)CCc1ccccc1C(=O)N1CCCC1 [Example 47, (4αS,5R)-1-(4-fluorophenyl)-4α-methyl-5-{2-[2-(pyrrolidin-1-ylcarbonyl)phenyl]ethyl}-1,4,4α,5,6,7-hexahydrocyclopenta[f]indazol-5-ol] |
